Read-outs that look alike come from different tables or passages of the source.
What was measured:
THP1-XBlue™ cells = assay: Anti-inflammation efficacy in THP-1 in vitro assay (LPS co-treatment, IL-6 ELISA); format: cell-based; conditions: co-treated with E. coli LPS, PMA-differentiated THP1-XBlue cells, 24 hours, supernatant ELISA, LPS alone 3253.4
Protocol: The following procedure was used to test the anti-inflammation efficacy of the compound:
THP1-XBlue™ (Cat No: thpx-sp, InvivoGen) cells were cultured as suspense in RPMI 1640 medium supplemented with 10% FBS, penicillin (10 U/mL)—streptomycin (10 μg/ML). Cells were differentiated in 24-well plates at the density of 5×10^5 cells/well with 100 nM PMA for 72 hours. Cells were then co-treated with pure E. coli ipopolysaccharides (LPS) and with the compound inside the invention. After 24 hours, the supernatants were collected and measured for interleukin (IL)-6 as pro-inflammatory bio-marker using enzyme-linked immunosorbent assay (ELISA).

[1] = background statement (well known; Clariant introduction), cited from earlier work
[2] = Octopirox® degradation under cool white light; format: physicochemical; conditions: cool white light (indoor light), 24 hours, room temperature, LCMS / UPLC-UV
Protocol: Cool White Light Treatment:
The cool white light (CWL) irradiation was carried out in an X-Rite (Macbeth) Spectra Light III chamber. CWL mode was chosen which provides stable irradiation mimicking the indoor light. The intensity of light was fixed which estimated at 6 μw/cm2 for UVA and 1.5 μw/cm^2 for UVB. The chamber temperature was equal to the room temperature ([…]). The sample was placed in a line close to the center of the chamber. After 24 hours, the sample was analyzed by LCMS (Water UPLC coupled with Quatro Micro MS)., by quantitatively measured using UPLC-UV analysis following DPS derivatization.
The separation was performed by a UPLC BEH C18 column and the mobile phase was acetonitrile/water (60/40, 0.1% formic acid) in isocratic elution. Electrospray ionization in positive mode was applied for MS scan.

Row | Structure (SMILES) | Concentration of IL-6 (THP1-XBlue™ cells; 5 μM of the compound) [pg/mL] | Concentration of IL-6 (THP1-XBlue™ cells; 10 μM of the compound) [pg/mL] | light stability [1] | light stability ([1]; listed as piroctone olamine) | quantity of Octopirox® after cool white light irradiation [2]
1 | Cc1cc(O)nc(CC(C)CC(C)(C)C)c1 (centres unmarked) [the compound] | 3083.3 | 1405.3 |  |  | 
2 | Cc1cc(CC(C)CC(C)(C)C)n(O)c(=O)c1.NCCO (centres unmarked) [Octopirox®, piroctone olamine] |  |  | unstable under light | light instable | reduced
